Test results published in ChEMBL document CHEMBL5729649, “Enzyme inhibitors” (2023).

Experiments:
Coagulation factor XI = Coagulation factor XI (Homo sapiens, UniProt P03951); test: (§1) Determination of the % Inhibition for FXIa: FXIa inhibitory activity in vitro was determined using standard published methods (see e.g. Johansen et al., Int. J. Tiss. Reac. 1986, 8, 185; Shori et al., Biochem. Pharmacol., 1992, 43, 1209; Sturzebecher et al., Biol. Chem. Hoppe-Seyler, 1992, 373, 1025). Human FXIa (Enzyme Research Laboratories) was incubated at 25° C. with the fluorogenic substrate Z-Gly-Pro-Arg-AFC and 40 μM of the test compound (or alternatively at various concentrations of the test compound in order to determine IC50). Residual enzyme activity (initial rate of reaction) was determined by measuring the change in optical absorbance at 410 nm and the IC50 value for the test compound was determined.
Plasma kallikrein = Plasma kallikrein (Homo sapiens, UniProt P03952); test: as §1, with “IC50” for “% Inhibition”, “Plasma Kallikrein: Plasma kallikrein” for “FXIa: FXIa”, “plasma kallikrein (Protogen)” for “FXIa (Enzyme Research Laboratories)”, “H-DPro-Phe-Arg-AFC” for “Z-Gly-Pro-Arg-AFC”, “and” for “and 40 μM of the test compound (or alternatively at”, “compound.” for “compound in order to determine IC50).”
Kallikrein-1 = Kallikrein-1 (Homo sapiens, UniProt P06870); test: as §1, with “IC50” for “% Inhibition”, “KLK1: KLK1” for “FXIa: FXIa”, “KLK1 (Callbiochem)” for “FXIa (Enzyme Research Laboratories)”, “H-DVal-Leu-Arg-AFC” for “Z-Gly-Pro-Arg-AFC”, “and” for “and 40 μM of the test compound (or alternatively at”, “compound.” for “compound in order to determine IC50).”
Chain of Kallikrein-1 (P06870 whole entry): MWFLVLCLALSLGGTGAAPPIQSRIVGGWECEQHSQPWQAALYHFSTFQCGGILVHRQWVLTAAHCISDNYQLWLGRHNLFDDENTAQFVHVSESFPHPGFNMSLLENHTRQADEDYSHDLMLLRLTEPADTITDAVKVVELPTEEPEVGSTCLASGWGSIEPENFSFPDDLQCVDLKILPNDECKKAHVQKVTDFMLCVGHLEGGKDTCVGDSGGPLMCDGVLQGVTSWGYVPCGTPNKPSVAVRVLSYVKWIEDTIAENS

Chain of Coagulation factor XI (P03951 19-387 limits assumed): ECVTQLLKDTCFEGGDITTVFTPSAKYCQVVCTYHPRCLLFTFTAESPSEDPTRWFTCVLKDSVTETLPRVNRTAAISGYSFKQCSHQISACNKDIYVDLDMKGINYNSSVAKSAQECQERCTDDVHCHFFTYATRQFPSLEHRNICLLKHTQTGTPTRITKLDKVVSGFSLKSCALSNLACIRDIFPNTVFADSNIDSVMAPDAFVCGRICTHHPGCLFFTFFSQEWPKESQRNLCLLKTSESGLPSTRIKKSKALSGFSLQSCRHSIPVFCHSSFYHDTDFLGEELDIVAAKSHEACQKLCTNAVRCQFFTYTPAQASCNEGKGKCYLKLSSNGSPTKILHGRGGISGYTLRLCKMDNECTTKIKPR
Chain of Coagulation factor XI (P03951 388-625 limits assumed): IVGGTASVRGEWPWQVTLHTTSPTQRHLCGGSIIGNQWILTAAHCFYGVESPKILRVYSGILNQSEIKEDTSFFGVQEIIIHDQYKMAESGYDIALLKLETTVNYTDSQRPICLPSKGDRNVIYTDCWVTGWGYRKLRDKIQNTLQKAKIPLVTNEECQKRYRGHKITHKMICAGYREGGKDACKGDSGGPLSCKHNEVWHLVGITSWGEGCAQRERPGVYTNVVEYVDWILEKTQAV
Chain of Plasma kallikrein (P03952 20-390 limits assumed): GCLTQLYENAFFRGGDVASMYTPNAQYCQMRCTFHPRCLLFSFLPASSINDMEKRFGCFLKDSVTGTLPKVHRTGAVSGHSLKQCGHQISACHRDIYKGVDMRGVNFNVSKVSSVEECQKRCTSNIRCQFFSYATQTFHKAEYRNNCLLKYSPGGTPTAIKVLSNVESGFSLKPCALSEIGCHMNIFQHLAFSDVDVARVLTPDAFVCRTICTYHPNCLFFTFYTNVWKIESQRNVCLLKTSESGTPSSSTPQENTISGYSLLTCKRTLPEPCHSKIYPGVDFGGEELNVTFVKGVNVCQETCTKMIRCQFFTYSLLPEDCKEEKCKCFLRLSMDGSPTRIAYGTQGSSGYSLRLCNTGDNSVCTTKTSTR
Chain of Plasma kallikrein (P03952 391-638 limits assumed): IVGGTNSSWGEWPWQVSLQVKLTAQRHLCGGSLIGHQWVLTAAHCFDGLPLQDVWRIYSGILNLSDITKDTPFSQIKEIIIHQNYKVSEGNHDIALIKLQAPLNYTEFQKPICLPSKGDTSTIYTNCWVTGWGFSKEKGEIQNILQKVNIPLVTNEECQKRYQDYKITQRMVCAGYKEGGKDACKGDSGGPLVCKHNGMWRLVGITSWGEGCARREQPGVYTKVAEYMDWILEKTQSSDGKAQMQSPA

Row | SMILES | IC50 (Coagulation factor XI) [µM] | IC50 (Plasma kallikrein) [µM] | IC50 (Kallikrein-1) [µM]
1 | COCc1nn(Cc2ccc3c(c2)CN(C(C)C)C3)cc1C(=O)NCc1c(-n2cc(C)nn2)ccc(OC)c1F | > 40 | < 0.01 | > 40
2 | COCc1nn(Cc2cnc(N3CCCC3)nc2)cc1C(=O)NCc1c(-n2ccnn2)ccc(OC)c1F | 0.97 | < 0.01 | > 40
3 | COCc1nn(Cc2cnc(N3CCCC3)nc2)cc1C(=O)NCc1c(-n2cc(C)nn2)ccc(OC)c1F | 1.84 | < 0.01 | > 40
